Test results published in paper PMC5218480 (PLoS ONE, 2017).

Tested on: MV-4-11 cells
Test: Gene expression microarray analysis (Affymetrix PrimeView) and GSEA
Assay type: cell-based, human
Set-up: RFU PODN (11730768_x_at) / Fold change /veh PODN (11730768_x_at) / RFU LINC00158 (11744669_a_at) / Fold change /veh LINC00158 (11744669_a_at) / RFU DUSP10 (11751237_a_at) / Fold change /veh DUSP10 (11751237_a_at) / RFU ID3 (11757404_x_at) / Fold change /veh ID3 (11757404_x_at) / RFU PLEKHG5 (11737974_s_at) / Fold change /veh PLEKHG5 (11737974_s_at) / RFU LRRC4B (11730491_at) / Fold change /veh LRRC4B (11730491_at) / RFU GIMAP4 (11747438_a_at) / Fold change /veh GIMAP4 (11747438_a_at) / RFU KRT8 (11758183_x_at) / Fold change /veh KRT8 (11758183_x_at) / RFU CNN1 (11734310_a_at) / Fold change /veh CNN1 (11734310_a_at) / RFU VPS37D (11726825_at) / Fold change /veh VPS37D (11726825_at) / RFU C10orf10 (11716522_x_at) / Fold change /veh C10orf10 (11716522_x_at) / RFU KIR2DL2 /// KIR2DL4 /// KIR2DL5A /// KIR2DL5B /// KIR2DS1 /// KIR2DS2 /// KIR2DS3 /// KIR2DS4 /// KIR3DL3 /// KIR3DL3 /// KIR3DS1 (11738374_at) / Fold change /veh KIR2DL2 /// KIR2DL4 /// KIR2DL5A /// KIR2DL5B /// KIR2DS1 /// KIR2DS2 /// KIR2DS3 /// KIR2DS4 /// KIR3DL3 /// KIR3DL3 /// KIR3DS1 (11738374_at) / RFU C1QL1 (11718748_at) / Fold change /veh C1QL1 (11718748_at) / RFU TMPRSS4 (11747572_a_at) / Fold change /veh TMPRSS4 (11747572_a_at) / RFU HAMP (11756126_x_at) / Fold change /veh HAMP (11756126_x_at) / RFU RNFT2 (11725882_a_at) / Fold change /veh RNFT2 (11725882_a_at) / RFU NR4A2 (11747474_a_at) / Fold change /veh NR4A2 (11747474_a_at) / RFU ABCC12 (11746883_a_at) / Fold change /veh ABCC12 (11746883_a_at) / RFU TMEM136 (11760407_x_at) / Fold change /veh TMEM136 (11760407_x_at) / RFU CLDN22 /// WWC2 (11732394_at) / Fold change /veh CLDN22 /// WWC2 (11732394_at) / RFU HLA-DPB1 (11760878_x_at) / Fold change /veh HLA-DPB1 (11760878_x_at) / RFU SPINT1 (11716480_a_at) / Fold change /veh SPINT1 (11716480_a_at) / RFU GAP43 (11754022_s_at) / Fold change /veh GAP43 (11754022_s_at) / RFU A4GNT (11735810_at) / Fold change /veh A4GNT (11735810_at) / RFU PRB3 (11715151_x_at) / Fold change /veh PRB3 (11715151_x_at) / RFU TUBB4B (11761932_at) / Fold change /veh TUBB4B (11761932_at) / RFU CAPN14 (11732068_a_at) / Fold change /veh CAPN14 (11732068_a_at) / RFU TMCC2 (11721928_a_at) / Fold change /veh TMCC2 (11721928_a_at) / RFU IRGQ (11745062_a_at) / Fold change /veh IRGQ (11745062_a_at) / RFU FAM174B (11720279_a_at) / Fold change /veh FAM174B (11720279_a_at) / RFU TMPRSS4 (11748680_a_at) / Fold change /veh TMPRSS4 (11748680_a_at) / RFU FAM212B (11763350_a_at) / Fold change /veh FAM212B (11763350_a_at) / RFU PLEKHG5 (11743358_a_at) / Fold change /veh PLEKHG5 (11743358_a_at) / RFU ZSCAN30 (11745921_a_at) / Fold change /veh ZSCAN30 (11745921_a_at) / RFU CMKLR1 (11741424_a_at) / Fold change /veh CMKLR1 (11741424_a_at) / RFU LOC101060620 /// MAPK8IP1 (11723275_at) / Fold change /veh LOC101060620 /// MAPK8IP1 (11723275_at) / RFU SPTSSB (11747773_x_at) / Fold change /veh SPTSSB (11747773_x_at) / RFU PRSS12 (11739890_at) / Fold change /veh PRSS12 (11739890_at) / RFU BIN1 (11741810_x_at) / Fold change /veh BIN1 (11741810_x_at) / RFU WNT11 (11732464_a_at) / Fold change /veh WNT11 (11732464_a_at) / RFU C10orf10 (11716521_a_at) / Fold change /veh C10orf10 (11716521_a_at) / RFU C5orf56 (11738089_at) / Fold change /veh C5orf56 (11738089_at) / RFU CYB561 (11721691_x_at) / Fold change /veh CYB561 (11721691_x_at) / RFU ANKRD19P (11752326_a_at) / Fold change /veh ANKRD19P (11752326_a_at) / RFU OR2T12 /// OR2T33 /// OR2T8 (11738714_s_at) / Fold change /veh OR2T12 /// OR2T33 /// OR2T8 (11738714_s_at) / RFU VCAN (11748164_a_at) / Fold change /veh VCAN (11748164_a_at) / RFU JSRP1 (11732532_at) / Fold change /veh JSRP1 (11732532_at) / RFU KRTAP10-11 (11738290_x_at) / Fold change /veh KRTAP10-11 (11738290_x_at) / RFU MYO3A (11730013_a_at) / Fold change /veh MYO3A (11730013_a_at) / RFU EBF3 (11725865_a_at) / Fold change /veh EBF3 (11725865_a_at) / RFU CAMK2N1 (11719241_x_at) / Fold change /veh CAMK2N1 (11719241_x_at) / RFU C5orf56 (11738088_a_at) / Fold change /veh C5orf56 (11738088_a_at) / RFU OLFML3 (11715873_a_at) / Fold change /veh OLFML3 (11715873_a_at) / RFU LOC100653217 /// NTM (11731650_a_at) / Fold change /veh LOC100653217 /// NTM (11731650_a_at) / RFU MAPK11 (11762145_a_at) / Fold change /veh MAPK11 (11762145_a_at) / RFU FIZ1 (11724087_x_at) / Fold change /veh FIZ1 (11724087_x_at) / RFU OASL (11726364_x_at) / Fold change /veh OASL (11726364_x_at) / RFU SOX15 (11748057_x_at) / Fold change /veh SOX15 (11748057_x_at) / RFU CD79A (11719716_a_at) / Fold change /veh CD79A (11719716_a_at) / RFU HIST1H1D (11736915_at) / Fold change /veh HIST1H1D (11736915_at) / RFU CASKIN2 (11723855_a_at) / Fold change /veh CASKIN2 (11723855_a_at) / RFU LOC730098 (11760151_x_at) / Fold change /veh LOC730098 (11760151_x_at) / RFU OR4N2 (11742367_at) / Fold change /veh OR4N2 (11742367_at) / RFU PRRT2 (11749266_a_at) / Fold change /veh PRRT2 (11749266_a_at) / RFU SNX32 (11753110_a_at) / Fold change /veh SNX32 (11753110_a_at) / RFU CDHR5 (11726645_a_at) / Fold change /veh CDHR5 (11726645_a_at) / RFU RCAN1 (11760418_a_at) / Fold change /veh RCAN1 (11760418_a_at) / RFU FAM167A (11723789_a_at) / Fold change /veh FAM167A (11723789_a_at) / RFU FAM26E (11764081_at) / Fold change /veh FAM26E (11764081_at) / RFU ISYNA1 (11749810_s_at) / Fold change /veh ISYNA1 (11749810_s_at) / RFU ACY1 (11761880_at) / Fold change /veh ACY1 (11761880_at) / RFU 11764098_at / Fold change /veh 11764098_at / RFU SAMD14 (11745864_x_at) / Fold change /veh SAMD14 (11745864_x_at) / RFU NPB (11741838_a_at) / Fold change /veh NPB (11741838_a_at) / RFU TMPRSS6 (11731388_a_at) / Fold change /veh TMPRSS6 (11731388_a_at) / RFU KRTAP10-2 (11738614_at) / Fold change /veh KRTAP10-2 (11738614_at) / RFU ARHGAP8 /// PRR5-ARHGAP8 (11727945_x_at) / Fold change /veh ARHGAP8 /// PRR5-ARHGAP8 (11727945_x_at) / RFU KRTAP5-7 /// NADSYN1 (11734609_at) / Fold change /veh KRTAP5-7 /// NADSYN1 (11734609_at) / RFU RASL12 (11751679_a_at) / Fold change /veh RASL12 (11751679_a_at) / RFU CDKN2B (11736163_a_at) / Fold change /veh CDKN2B (11736163_a_at) / RFU PRF1 (11729649_at) / Fold change /veh PRF1 (11729649_at) / RFU, ZNF638 /// ZNF638-IT1 / Fold change vs veh, ZNF638 /// ZNF638-IT1 / RFU, PANK3 / Fold change vs veh, PANK3 / RFU, SH3YL1 / Fold change vs veh, SH3YL1 / RFU, ZEB2 / Fold change vs veh, ZEB2 / RFU, NRIP1 / Fold change vs veh, NRIP1 / RFU, PTTG1IP / Fold change vs veh, PTTG1IP / RFU, CAPN2 / Fold change vs veh, CAPN2 / RFU, MED14 / Fold change vs veh, MED14 / RFU, SNORA58 / Fold change vs veh, SNORA58 / RFU, C1orf63 / Fold change vs veh, C1orf63 / RFU, LRRFIP1 / Fold change vs veh, LRRFIP1 / RFU, NDUFAF7 / Fold change vs veh, NDUFAF7 / RFU, SLC12A2 / Fold change vs veh, SLC12A2 / RFU, IBTK / Fold change vs veh, IBTK / RFU, ESF1 / Fold change vs veh, ESF1 / Fold change vs veh, TMEM50B / RFU, TAOK1 / Fold change vs veh, TAOK1 / RFU, ACBD3 / Fold change vs veh, ACBD3 / RFU, TMA16 / Fold change vs veh, TMA16 / RFU, RWDD3 / Fold change vs veh, RWDD3 / RFU, BCAT1 / Fold change vs veh, BCAT1 / RFU, EDEM3 / Fold change vs veh, EDEM3 / RFU, TMEM33 / Fold change vs veh, TMEM33 / RFU, WDR75 / Fold change vs veh, WDR75 / RFU, AHCTF1 / Fold change vs veh, AHCTF1 / RFU, TFRC / Fold change vs veh, TFRC / RFU, ZDHHC17 / Fold change vs veh, ZDHHC17 / RFU, NOM1 / Fold change vs veh, NOM1 / RFU, ARL8B / Fold change vs veh, ARL8B / RFU, ZBTB11 / Fold change vs veh, ZBTB11 / RFU, TAMM41 / Fold change vs veh, TAMM41 / RFU, KIAA1704 /// LOC100996395 / Fold change vs veh, KIAA1704 /// LOC100996395 / RFU, ING1 / Fold change vs veh, ING1 / RFU, TRMT61B / Fold change vs veh, TRMT61B / RFU, FUBP3 / Fold change vs veh, FUBP3 / RFU, TP53 / Fold change vs veh, TP53 / RFU, TNKS2 / Fold change vs veh, TNKS2 / RFU, ZFP14 / Fold change vs veh, ZFP14 / RFU, ACTR2 / Fold change vs veh, ACTR2 / RFU, PPP3R1 / Fold change vs veh, PPP3R1 / RFU, PIK3R1 / Fold change vs veh, PIK3R1 / RFU, HNRNPA1 / Fold change vs veh, HNRNPA1 / RFU, RNF170 / Fold change vs veh, RNF170 / RFU, ZNF28 / Fold change vs veh, ZNF28 / RFU, RNGTT / Fold change vs veh, RNGTT / RFU, OGT / Fold change vs veh, OGT / RFU, BRD1 / Fold change vs veh, BRD1 / RFU, MARS / Fold change vs veh, MARS / RFU, ZNF655 / Fold change vs veh, ZNF655 / RFU, FAHD1 / Fold change vs veh, FAHD1 / RFU, BDP1 / Fold change vs veh, BDP1 / RFU, LRRCC1 / Fold change vs veh, LRRCC1 / RFU, ARID1A / Fold change vs veh, ARID1A / RFU, ZNF146 / Fold change vs veh, ZNF146 / RFU, ZNF330 / Fold change vs veh, ZNF330 / RFU, GPN3 / Fold change vs veh, GPN3 / RFU, C9orf123 / Fold change vs veh, C9orf123 / RFU, N4BP2L2 / Fold change vs veh, N4BP2L2 / RFU, ARFIP1 / Fold change vs veh, ARFIP1 / RFU, FAM179B / Fold change vs veh, FAM179B / RFU, BCL10 / Fold change vs veh, BCL10 / RFU, UHRF1BP1L / Fold change vs veh, UHRF1BP1L / RFU, BET1 / Fold change vs veh, BET1 / RFU, CNOT2 / Fold change vs veh, CNOT2 / RFU, ZNF268 / Fold change vs veh, ZNF268 / Fold change vs veh, ZNF507 / RFU, DGCR2 / Fold change vs veh, DGCR2 / RFU, WDSUB1 / Fold change vs veh, WDSUB1 / Fold change vs veh, HSP90B1 /// MIR3652 / RFU, ADSS / Fold change vs veh, ADSS / RFU, GK / Fold change vs veh, GK / RFU, ZNF148 / Fold change vs veh, ZNF148 / RFU, TAF9 / Fold change vs veh, TAF9 / RFU, SLC1A5 / Fold change vs veh, SLC1A5 / RFU, SLMO2 / Fold change vs veh, SLMO2 / RFU, ABCC4 / Fold change vs veh, ABCC4 / RFU, LOC101060439 /// RAP1B / Fold change vs veh, LOC101060439 /// RAP1B / RFU, RFX7 / Fold change vs veh, RFX7 / RFU, GTPBP10 / Fold change vs veh, GTPBP10 / RFU, CNEP1R1 / Fold change vs veh, CNEP1R1 / RFU, BIVM-ERCC5 /// ERCC5 / Fold change vs veh, BIVM-ERCC5 /// ERCC5 / RFU, ILF3 / Fold change vs veh, ILF3 / RFU 11762660_at / Fold change /veh 11762660_at / RFU VCAN (11757783_s_at) / Fold change /veh VCAN (11757783_s_at) / RFU DDX43 (11728927_at) / Fold change /veh DDX43 (11728927_at) / RFU KRT8 (11758188_x_at) / Fold change /veh KRT8 (11758188_x_at) / RFU NKD1 (11759106_at) / Fold change /veh NKD1 (11759106_at) / RFU SRD5A1 (11742802_a_at) / Fold change /veh SRD5A1 (11742802_a_at) / RFU TPSAB1 /// TPSB2 (11721975_s_at) / Fold change /veh TPSAB1 /// TPSB2 (11721975_s_at) / RFU GSTM3 (11746129_a_at) / Fold change /veh GSTM3 (11746129_a_at) / RFU IL23R (11737362_x_at) / Fold change /veh IL23R (11737362_x_at) / RFU TMEM51 (11727254_a_at) / Fold change /veh TMEM51 (11727254_a_at) / RFU PIWIL2 (11732686_x_at) / Fold change /veh PIWIL2 (11732686_x_at) / RFU ORM1 (11744905_x_at) / Fold change /veh ORM1 (11744905_x_at) / RFU CCDC152 (11743942_at) / Fold change /veh CCDC152 (11743942_at) / RFU ECM1 (11717891_a_at) / Fold change /veh ECM1 (11717891_a_at) / RFU IL23R (11748794_a_at) / Fold change /veh IL23R (11748794_a_at) / RFU TNFAIP8L3 (11732012_x_at) / Fold change /veh TNFAIP8L3 (11732012_x_at) / RFU MBOAT4 (11741988_at) / Fold change /veh MBOAT4 (11741988_at) / RFU 11764193_at / Fold change /veh 11764193_at / RFU TMEM53 (11763286_at) / Fold change /veh TMEM53 (11763286_at) / RFU MAGEB2 (11727129_at) / Fold change /veh MAGEB2 (11727129_at) / RFU TMEM200A (11744735_a_at) / Fold change /veh TMEM200A (11744735_a_at) / RFU CCDC152 (11751479_a_at) / Fold change /veh CCDC152 (11751479_a_at) / RFU FAM211A (11726209_a_at) / Fold change /veh FAM211A (11726209_a_at) / RFU RGS16 (11746705_a_at) / Fold change /veh RGS16 (11746705_a_at) / RFU VCAN (11755009_s_at) / Fold change /veh VCAN (11755009_s_at) / RFU RHOB (11743442_s_at) / Fold change /veh RHOB (11743442_s_at) / RFU RGS16 (11720943_a_at) / Fold change /veh RGS16 (11720943_a_at) / RFU RGS16 (11720944_at) / Fold change /veh RGS16 (11720944_at) / RFU, VPS4B / Fold change vs veh, VPS4B / RFU, CREB1 / Fold change vs veh, CREB1 / RFU, DNAJC13 / Fold change vs veh, DNAJC13 / RFU, GNAQ / Fold change vs veh, GNAQ / RFU, CDK5R1 / Fold change vs veh, CDK5R1 / RFU, ZRANB3 / Fold change vs veh, ZRANB3 / RFU, CUL4A / Fold change vs veh, CUL4A / RFU, CCNY / Fold change vs veh, CCNY / RFU, UFL1 / Fold change vs veh, UFL1 / RFU, COG3 / Fold change vs veh, COG3 / RFU, DIAPH2 / Fold change vs veh, DIAPH2 / RFU, SKA2 / Fold change vs veh, SKA2 / RFU, AFF3 / Fold change vs veh, AFF3 / RFU, LMF1 / Fold change vs veh, LMF1 / RFU, IPO11 / Fold change vs veh, IPO11 / RFU, DFFB / Fold change vs veh, DFFB / RFU, FOXP1 / Fold change vs veh, FOXP1 / RFU, CARD8 / Fold change vs veh, CARD8 / RFU, STRN3 / Fold change vs veh, STRN3 / RFU, ADK / Fold change vs veh, ADK / RFU, RASSF2 / Fold change vs veh, RASSF2 / RFU, WIPF1 / Fold change vs veh, WIPF1 / RFU, LARP1B / Fold change vs veh, LARP1B / RFU, RASA1 / Fold change vs veh, RASA1 / RFU, RB1 / Fold change vs veh, RB1 / RFU, PPFIA1 / Fold change vs veh, PPFIA1 / RFU, MAT2A / Fold change vs veh, MAT2A / RFU, CCT5 / Fold change vs veh, CCT5 / RFU, WDR92 / Fold change vs veh, WDR92 / RFU, CUX1 / Fold change vs veh, CUX1 / RFU, TTC7A / Fold change vs veh, TTC7A / RFU, TMEM135 / Fold change vs veh, TMEM135 / RFU, DEPTOR / Fold change vs veh, DEPTOR / RFU, CPM / Fold change vs veh, CPM / RFU, DNAJB6 / Fold change vs veh, DNAJB6 / RFU, CACNA2D3 / Fold change vs veh, CACNA2D3 / RFU, DTX4 / Fold change vs veh, DTX4 / RFU, TFCP2 / Fold change vs veh, TFCP2 / RFU, GMCL1 /// GMCL1P1 / Fold change vs veh, GMCL1 /// GMCL1P1 / RFU, AEBP2 / Fold change vs veh, AEBP2 / RFU, SNHG1 /// SNORD22 /// SNORD25 /// SNORD26 /// SNORD27 /// SNORD28 /// SNORD29 /// SNORD31 / Fold change vs veh, SNHG1 /// SNORD22 /// SNORD25 /// SNORD26 /// SNORD27 /// SNORD28 /// SNORD29 /// SNORD31 / Fold change (Aza/veh), C12orf56 (ProbeSet 11735607_a_at) / Fold change (ACY-1035/veh), C12orf56 (ProbeSet 11735607_a_at) / Fold change (Aza/veh), FGFR1OP (ProbeSet 11751329_s_at) / Fold change (ACY-1035/veh), FGFR1OP (ProbeSet 11751329_s_at) / Fold change (Aza/veh), VPS36 (ProbeSet 11739960_a_at) / Fold change (ACY-1035/veh), VPS36 (ProbeSet 11739960_a_at) / RFU SYPL1 (11715823_x_at) / Fold change /veh SYPL1 (11715823_x_at) / RFU IGFBP7 (11715501_s_at) / Fold change /veh IGFBP7 (11715501_s_at) / RFU REEP3 (11722064_at) / Fold change /veh REEP3 (11722064_at) / RFU IGLL1 (11728026_x_at) / Fold change /veh IGLL1 (11728026_x_at): dose or concentration left out as unconfirmed
Conditions: ProbeSet 11725100_s_at; LIST B

For `Nc1ccc(-c2cccs2)cc1NC(=O)c1ccc2c(c1)cc(C1CC1)n2CCN1CCOCC1` [ACY-1035], the “RFU, ESF1” value was 97.73 RFU.
